Key:
CD8+ T cells = assay: In vitro T-cell priming assay (immunogenicity) with aAPCs loaded with peptide/MHC complexes and anti-CD28 antibody; format: cell-based, human; conditions: in vitro immunogenicity, HLA-A*03 restricted peptides, Table 10b
HLA-A*03:01 = HLA-A*03:01 (Homo sapiens, UniProt P04439); assay: MHC binding assay (UV-ligand exchange, β2m ELISA); conditions: binding to HLA-A*03:01, UV-ligand exchange, β2m ELISA
How it was run: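 Peptide-MHC complexes formed by UV-ligand exchange of a UV-cleavable peptide for the test peptide; exchange yield quantified by β2m ELISA. Streptavidin-coated capture, samples diluted 100-fold, 1 h at 37 °C, HRP anti-β2m detection, TMB read at 450 nm against HLA-A*02:01/MLA-001 monomer standards (15–500 ng/ml).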

Substance	Wells positive [%] (CD8+ T cells)	Peptide exchange (MHC class I binding score, peptide exchange yield) (HLA-A*03:01)
29 (KVLSILSRLK; listed as Homo sapiens) [compound 29]	“+” (1-19% = +)	+++ (>50 = +++)
33 (KLLEDMVEK; listed as Homo sapiens) [compound 33]	“+” (1-19% = +)	++ (>20% = ++)
45 (KCYEVGMMK; listed as Homo sapiens) [compound 45]	“+” (1-19% = +)	++++ (>75% = ++++)
46 (VVTGNVPLK; listed as Homo sapiens) [compound 46]	“+” (1-19% = +)	+++ (>50 = +++)
52 (GMYEYGSIEK; listed as Homo sapiens) [compound 52]	“+” (1-19% = +)	++++ (>75% = ++++)
57 (RVLYRPQLEK; listed as Homo sapiens) [compound 57]	“+” (1-19% = +)	+++ (>50 = +++)
64 (SVLSRMLVR; listed as Homo sapiens) [compound 64]	“+” (1-19% = +)	++++ (>75% = ++++)
69 (GLSTILLYH; listed as Homo sapiens) [compound 69]	“+” (1-19% = +)	++++ (>75% = ++++)
71 (VLYELGIIGNNK; listed as Homo sapiens) [compound 71]	“+” (1-19% = +)	+++ (>50 = +++)
77 (VVDDSQLPK; listed as Homo sapiens) [compound 77]	“+” (1-19% = +)	++ (>20% = ++)
81 (HLFLPFSYK; listed as Homo sapiens) [compound 81]	“+” (1-19% = +)	++++ (>75% = ++++)
214 (KLFTSVFGVGLK; listed as Homo sapiens) [compound 214]	“+” (1-19% = +)	++++ (>75% = ++++)

From patent US11872270B2, “A*03 restricted peptides for use in immunotherapy against cancers and related methods” (Immatics Biotechnologies GmbH, priority 2018, dated 2024)
